# US10045972B2, “Hydroxypyridone derivatives, pharmaceutical compositions thereof, and their therapeutic use for treating inflammatory, neurodegenerative, or immune-mediated diseases” (BioTheryX, Inc., priority 2014, dated 2018)
# Entries after “also recorded” stand apart in the source; their conditions may differ.
# Columns and labels:
# MO3-13 cells [1] = assay: Protection of differentiated MO3-13 cells against TNF-α toxicity (Kinetic Apoptosis Kit, live cell fluorescence microscopy); type: cell-based; details: 1 μM ciclopirox with human TNF-α protein 30 ng/mL; images after 1, 15 and 72 hrs, FIG. 3
# Method: The protective effects of ciclopirox on MO3-13 cells against TNF-α toxicity was also determined. MO3-13 cells were grown in 6 well dishes and allowed to adhere overnight. Cells were grown to 70% confluence and then differentiated into oligodendrocyte-like cells by removal of FBS from DMEM medium for 48 hrs. Cells were treated with vehicle (no treatment); human TNF-α protein (30 ng/mL); 1 μM ciclopirox; and a combination of 1 μM ciclopirox and human TNF-α protein (30 ng/mL). Cells were treated with Abcam's Kinetic Apoptosis Kit (Microscopy) prior to live cell fluorescence microscopy imaging using an inverted Zeiss epi-fluorescent microscope. Merged images of phase contrast, green (pSIVA-IANBD) and red (PI) fluorescence were captured after 1 hr, 15 and 72 hrs in cell culture.
# MO3-13 cells [2] = assay: Protection of MO3-13 cells from cuprizone toxicity (phase contrast); type: cell-based, human; details: compound 5 μM, cuprizone 50 μM, 24 hrs, FIG. 5
# Method: The protective effects of compound A1 on MO3-13 cells from cuprizone toxicity was then determined. […] Cuprizone at a final concentration of 50 μM was solubilized in 100% ethanol was added to selected dishes with and without compound A1 (5 μM) in DMSO.
# [3] = system: myelin basic protein (MBP) in MO3-13 cells; assay: Induction of myelin basic protein (MBP) production in MO3-13 cells (slot blot, anti-MBP); type: cell-based, human
# Method: Dilutions (0.1 mg/mL) of MO3-13 whole cell extracts were prepared and the proteins (5 μg) from the dilutions were blotted onto nitrocellulose membrane using a slot blotter. The non-protein sites on the blot were blocked with 2% ECL block in PBS-Tween20. Primary […] was diluted in block solution at 300×. The primary antibody was incubated overnight at 4° C. with gentle shaking. The following day the blot was developed using enhanced ECL (GE Healthcare) method. Image of bound antibody were captured using Image Lab software driving a Bio-Rad ChemiDoc XRS+ image capture system.
# [4] = system: primary mouse oligodendrocytes; assay: Protection from cuprizone toxicity, primary mouse oligodendrocytes, MITOTRACKER and immunocytochemistry; type: cell-based; details: MITOTRACKER (red) and beta-catenin (green), FIG. 6
# Method: (§1) Stock MITOTRACKER® (Molecular Probes) was diluted with DMSO to a final concentration of 1 mM. MITOTRACKER® (100 nM) was incubated with the live cells at 37° C. for 30 min. MITOTRACKER® labeling of mitochondria was assessed using a Zeiss inverted microscope. Following MITOTRACKER® treatment, cells were processed for immunocytochemistry. Cells grown on mouse oligodendrocyte extracellular matrix coated cover slips (Celprogen) were fixed with fixing solution containing 0.1% gluteraldehyde, 2% paraformaldehyde, 80 mM Pipes, 5 mM EGTA, pH 8.0, 1 mM MgCl2, and 0.5% Triton-X100. The cells were fixed for 7 min at 37° C. The cells on cover slips were washed and then blocked with 2% bovine serum albumin (BSA) for 1 hr. Primary antibodies were diluted in 2% BSA and incubated on the cover glass for 1 hr in a humid chamber. Following incubation, cover slips were washed and then incubated for 1 hr with species-specific secondary antibodies conjugated with fluorescent label or with biotin. After washing, slides were incubated with streptavidin conjugated with fluorescein fluorescent labels for 40 min. Cover slips were washed again and mounted with DABCO mountant. Fluorescently labeled cells were visualized with a Zeiss epi-fluorescent microscope. Data collected was for MITOTRACKER® (red channel) and beta-catenin (green channel).
# [5] = system: human oligodendrocytes (MO3-13); assay: TNF-α toxicity on MO3-13 cells and protection (Trypan blue cell counts); type: cell-based; details: cells exposed to LD50 human TNF-α protein, FIG. 2
# Method: MO3-13 cells were grown in 6 well dishes (100,000 cells per dish) and allowed to adhere overnight. Cells were treated with increasing amounts of human recombinant TNF-α protein (Abcam Ab9642). Cells either treated with increasing amounts of TNF-α protein or with vehicle (PBS) were allowed to grow for additional 24 hrs, after which MO3-13 cells were trypsinized and counted using Trypan blue and a Nebauer hemocytometer. Mean cell counts were plotted graphically against TNF-α concentrations. The LD50 of human TNF-α was determined to be 30 ng/mL on MO3-13 cells. The protective effects of compound A1 on MO3-13 cells that were exposed to LD50 human TNF-α protein were then determined and the results are shown in FIG. 2.
# [6] = system: primary human oligodendrocytes; assay: Protection from cuprizone toxicity, primary human oligodendrocytes, MITOTRACKER and immunocytochemistry; type: cell-based; details: MITOTRACKER (red), green channel, nuclei (blue), FIGS. 8 and 9
# Method: as §1, with “MITOTRACKER®” for “Stock MITOTRACKER® (Molecular Probes) was diluted with DMSO to a final concentration of 1 mM. MITOTRACKER®”, “human” for “mouse”, “MBP” for “beta-catenin”, “channel). Nuclei are labeled with DAPI (blue channel).” for “channel).”
# [7] = system: TNF-α secretion from human primary glioblastoma cells (U87); assay: Reduction of TNF-α secretion from U87 cells (slot blot of conditioned media); type: cell-based; details: compound at 10 μM, 48 hrs, FIG. 1
# Method: TNF-α secretion was measured using U87 cell line. Cells were distributed into 6 well dishes and allowed to adhere overnight. When cells were confluent, they were treated with 6-cyclohexyl-1-hydroxy-4-methyl-1H-pyridine-2-thione A1 at 10 μM in each dish, wherein compound A1 was solubilized in neat DMEM. Cells were exposed to the compound for 48 hrs. Conditioned media was collected and assayed for TNF-α using mouse monoclonal to TNF-α (Abcam 52B83, Cambridge, Mass.). Conditioned media (100 μL) was applied to each slot. The nitrocellulose filter membrane was blocked with ECL advanced block (2% in Tris buffered saline with Tween-20 (0.05%)) for 1 hr with gentle shaking at room temperature. Primary mouse anti-TNF-α (Abcam 52B83) was diluted 1,000× in the blocking solution. Primary antibodies were applied to blots and incubated overnight at 4° C. with gentle shaking. Blots were developed using enhanced ECL (GE Healthcare) method. Images of bound antibodies were captured using Image Lab software driving a Bio-Rad ChemiDoc XRS+ image capture system.
# [8] = system: primary human oligodendrocytes; assay: Protection from cuprizone toxicity, primary human oligodendrocytes, live cell images; details: 24 hrs, FIG. 7
# Method: Cells were weaned off with fetal bovine serum containing differentiation medium (Celprogen) up to 25 days in culture. The cells were exposed to either no treatment (Vehicles=ethanol and DMSO); compound A1 ranging in dosage of 2, 5 and 10 μM; cuprizone (50 μM) (Sigma Aldrich) or a combination of compound A1 and cuprizone (50 μM). Cells were treated for 24 hrs, after which images were captured of live cells using an inverted Zeiss microscope.
structure (smiles),measurement,setting,value
Cc1cc(C2CCCCC2)n(O)c(=O)c1 [ciclopirox],protection of MO3-13 cells against TNF-α toxicity,MO3-13 cells [1],protection; also recorded: protective up to 72 hrs
"Cc1cc(C2CCCCC2)n(O)c(=S)c1 [compound A1, 6-cyclohexyl-1-hydroxy-4-methyl-1H-pyridine-2-thione]",protection of MO3-13 cells against cuprizone toxicity,MO3-13 cells [2],protection
same,MBP bound by anti-MBP (induction of MBP production),"[3]; MO3-13 cells treated with Cpz and compound, p<0.001, FIG. 10",induction of myelin basic protein (MBP) production; also recorded: significantly higher
same,MBP bound by anti-MBP,"[3]; MO3-13 cells treated with compound alone, p<0.001, FIG. 10",significantly higher
same,protection of primary mouse oligodendrocytes against cuprizone toxicity,[4],protection
same,protection of MO3-13 cells against TNF-α toxicity,[5],protection
same,protection of primary human oligodendrocytes against cuprizone toxicity,[6],protection
same,reduction of TNF-α secretion,[7],reduction of TNF-α secretion
same,protection of primary human oligodendrocytes against cuprizone toxicity,"[8]; compound 2, 5 and 10 μM with cuprizone 50 μM, live cell images",protection; also recorded: appears to be protective at various dosings
"O=C(NN=C1CCCCC1)C(=O)NN=C1CCCCC1 [cuprizone, reference compound]",anti-MBP antibody binding compared with non-treated (NT) cells,"[3]; MO3-13 cells treated with Cpz alone, FIG. 10",reduced anti-MBP antibody binding
same,toxicity of cuprizone to primary human oligodendrocytes,[8]; cuprizone 50 μM alone,toxic
